The values that follow come from patent US11382956B2, “Amylin analogues” (Zealand Pharma A/S, priority 2016, dated 2022).

Data set [1] has as its target T1, recombinant human amylin 3 receptor (hAMYR3) (Homo sapiens, UniProt O60896+P30988).
T1 construct: host or cells: human astrocytoma cell line 1321N1
T1 sequence (P30988 25-474): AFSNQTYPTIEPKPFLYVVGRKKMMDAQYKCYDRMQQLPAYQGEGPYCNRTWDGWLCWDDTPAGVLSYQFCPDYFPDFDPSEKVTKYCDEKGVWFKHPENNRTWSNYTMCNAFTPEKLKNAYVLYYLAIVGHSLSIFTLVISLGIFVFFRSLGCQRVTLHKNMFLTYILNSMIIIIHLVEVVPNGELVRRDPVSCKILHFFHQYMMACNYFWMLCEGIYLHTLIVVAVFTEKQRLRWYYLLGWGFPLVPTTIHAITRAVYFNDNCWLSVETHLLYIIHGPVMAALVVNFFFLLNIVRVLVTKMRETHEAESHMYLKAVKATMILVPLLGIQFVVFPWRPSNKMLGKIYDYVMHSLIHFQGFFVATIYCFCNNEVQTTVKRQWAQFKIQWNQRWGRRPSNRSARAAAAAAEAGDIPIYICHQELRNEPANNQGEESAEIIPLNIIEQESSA
T1 sequence (O60896 24-148 partner): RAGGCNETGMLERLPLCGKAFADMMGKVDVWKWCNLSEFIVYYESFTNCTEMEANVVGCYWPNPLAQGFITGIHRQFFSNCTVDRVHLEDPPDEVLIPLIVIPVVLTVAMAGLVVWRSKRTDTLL
In words: hAMYR3 cAMP assay (AlphaScreen) in 1321N1 cells. Format: cell-based. The following applies: cAMP formation, 45 min stimulation. In short, it runs like this: (§1)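 1321N1 astrocytoma cells expressing recombinant human calcitonin receptor alone or with RAMP3 (AMY3) stimulated 45 min at room temperature with peptide in IBMX-containing buffer. cAMP quantified by AlphaScreen after 1 h bead incubation; EC50 fitted from at least 7 concentrations.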

The nature of data set [2]: Assessment of chemical stability in 40 mM buffers at 40° C. (RP-HPLC). Format: physicochemical. The following applies: 1 mg/mL; for % degradation after 72 h at 40° C. pH7 phosphate: phosphate buffer pH 7, 72 h. The method, then: Samples of each test peptide were dissolved in acetate buffer pH 4 and phosphate buffer pH 6 and 7 (all buffer 40 mM). The final peptide concentration was 1 mg/mL. Samples were placed in glass vials and incubated at 40° C. The samples were analyzed by RP-HPLC on a C8 column with gradient elution using a trifluoroacetic acid/acetonitrile/water eluent system. The area-percentage (area-%) of the main peak was determined by UV spectroscopy at 220 nm at each sampling time point.
The % degradation was calculated by subtracting the […].
The results of the chemical stability assessment after 3 days of incubation time are summarized as % degradation in Table 1 (below).
The results of the chemical stability assessment after 14 days of incubation time are summarized as % degradation in Table 2 (below).

A short description of data set [3]: Assessment of physical stability: fibril formation by Thioflavin T fluorescence. More on the design: key: FND = fibrillation not detected; FD = fibrillation detected. Format: physicochemical. The following applies: 1 mg/mL peptide; for Fibrillation (in buffer) pH4 acetate: 50 mM acetate buffer pH 4.0, 96 hours at 40° C.; for Fibrillation (in buffer) pH7 histidine: 50 mM histidine buffer pH 7.0, 96 hours at 40° C.; for Fibrillation (in buffer) pH7 phosphate: 50 mM phosphate buffer pH 7.0, 96 hours at 40° C. The method, then: Solutions containing (i) 1 mg/mL of test peptide, 40 μM ThT and 50 mM phosphate (Ph) buffer (pH 7.0), (ii) 1 mg/mL of test peptide, 40 μM ThT and 50 mM histidine (His) buffer (pH 7.0), and (iii) 1 mg/mL of test peptide, 40 μM ThT and 50 mM acetate (Ac) buffer (pH 4.0), were loaded in a 96-well black fluorescence plate (clear bottom) in triplicate. Data were collected at fixed intervals of 10 min, each preceded by 300 s of automixing (agitation), over a period of 96 hours at 40° C. Physical stability is determined by measuring the fluorescence intensity over time. A significant increase in intensity is rated as fibrillation detected (FD).

Data set [4] deals with T2, recombinant human calcitonin receptor (hCT-R) (Homo sapiens, UniProt P30988).
T2 construct: host or cells: human astrocytoma cell line 1321N1
T2 sequence (P30988 25-474): T1 sequence (P30988 25-474)
Put plainly: hCT-R cAMP assay (AlphaScreen) in 1321N1 cells. To be noted: cAMP formation, 45 min stimulation. The format is cell-based. In short, it runs like this:
as §1

Numbered stars: 1 amine (or outer) side, 2 acyl side, 3 side chain; on linkers, the order of the positions; unused ones are H or OH. Bridge positions count the residues as written; N and C are the ends. Square brackets hold non-standard residues; d marks the D form. Peptide text beside a SMILES is read from it. * marks the point of attachment. C20 diacid = O=C(O)CCCCCCCCCCCCCCCCCCC(=O)*; γGlu = O=C(O)[C@H](CCC(=O)[*:2])N[*:1]; Hyp = O=C(O)[C@@H]1C[C@@H](O)CN1; NMeI = CC[C@H](C)[C@H](NC)C(=O)O; Aad = N[C@@H](CCCC(=O)O)C(=O)O; Orn = NCCC[C@H](N)C(=O)O; Sar = CNCC(=O)O

In general, EC50 refers to the concentration at which the effect is half-maximal. `CC[C@H](C)[C@@H](C(=O)N[C@@H](CC(C)C)C(=O)N[C@@H](CO)C(=O)N[C@@H](CO)C(=O)N[C@H](C(=O)N[C@@H](CCC(=O)O)C(=O)N[C@H](C(=O)NCC(=O)N[C@@H](CO)C(=O)N[C@@H](CC(N)=O)C(=O)N[C@H](C(=O)N1C[C@H](O)C[C@H]1C(N)=O)[C@@H](C)O)C(C)C)[C@@H](C)O)N(C)C(=O)[C@H](C)NC(=O)CN(C)C(=O)[C@H](Cc1ccccc1)NC(=O)[C@@H](NC(=O)[C@H](C)NC(=O)[C@H](CCCNC(=N)N)NC(=O)[C@H](CCC(N)=O)NC(=O)[C@H](CC(C)C)NC(=O)[C@H](Cc1ccccc1)NC(=O)[C@H](CCCC(=O)O)NC(=O)[C@H](C)NC(=O)[C@H](CC(C)C)NC(=O)[C@H](CCCNC(=N)N)NC(=O)[C@H](CCC(=O)O)NC(=O)[C@@H](NC(=O)[C@H](C)NC(=O)[C@@H]1CCCNC(=O)C[C@H](NC(=O)[C@H](CCCNC(=N)N)NC(=O)CC[C@H](NC(=O)CCCCCCCCCCCCCCCCCCC(=O)O)C(=O)O)C(=O)NCC(=O)N[C@@H]([C@@H](C)O)C(=O)N[C@@H](C)C(=O)N[C@@H]([C@@H](C)O)C(=O)N1)[C@@H](C)O)[C@@H](C)O` [Compound 25, [19CD]-isoGlu-RD()GTAT-Orn()-ATERLA-Aad-FLQRATF-Gly(Me)-A-Ile(Me)-LSSTEVGSNT-Hyp-NH2] ({C20 diacid-γGlu}-RDGTAT[Orn]ATERLA[Aad]FLQRATF[Sar]A[NMeI]LSSTEVGSNT[Hyp]-NH2; lactam 2-7): the EC50 in data set [1] came out at 0.336 nM. The “% degradation after 72 h at 40° C. pH7 phosphate” value in data set [2] was below 1%. Also, in data set [3], the “Fibrillation (in buffer) pH4 acetate” value is listed as “FND”, the “Fibrillation (in buffer) pH7 histidine” value is “FND” and the “Fibrillation (in buffer) pH7 phosphate” value is on record as “FND”. In addition, the EC50 in data set [4] came out at 0.844 nM.

`CC[C@H](C)[C@@H](C(=O)N[C@@H](CC(C)C)C(=O)N[C@@H](CO)C(=O)N[C@@H](CO)C(=O)N[C@H](C(=O)N[C@@H](CCC(=O)O)C(=O)N[C@H](C(=O)NCC(=O)N[C@@H](CO)C(=O)N[C@@H](CC(N)=O)C(=O)N[C@H](C(=O)N1C[C@H](O)C[C@H]1C(N)=O)[C@@H](C)O)C(C)C)[C@@H](C)O)N(C)C(=O)[C@H](C)NC(=O)CN(C)C(=O)[C@H](Cc1ccccc1)NC(=O)[C@H](CO)NC(=O)[C@H](CO)NC(=O)[C@H](CCCNC(=N)N)NC(=O)[C@H](CCC(N)=O)NC(=O)[C@H](CC(C)C)NC(=O)[C@H](Cc1ccccc1)NC(=O)[C@H](CC(=O)O)NC(=O)[C@H](C)NC(=O)[C@H](CC(C)C)NC(=O)[C@H](CCCNC(=N)N)NC(=O)[C@H](CCC(N)=O)NC(=O)[C@@H](NC(=O)[C@H](C)NC(=O)[C@@H]1CSSC[C@H](NC(=O)[C@H](CCCNC(=N)N)NC(=O)CC[C@H](NC(=O)CCCCCCCCCCCCCCCCCCC(=O)O)C(=O)O)C(=O)N[C@@H](CC(N)=O)C(=O)N[C@@H]([C@@H](C)O)C(=O)N[C@@H](C)C(=O)N[C@@H]([C@@H](C)O)C(=O)N1)[C@@H](C)O` [Ref. 5, [19CD]-isoGlu-RC()NTATC()ATQRLADFLQRSSF-Sar-A-Ile(Me)-LSSTEVGSNT-Hyp-NH2, reference compound] ({C20 diacid-γGlu}-RCNTATCATQRLADFLQRSSF[Sar]A[NMeI]LSSTEVGSNT[Hyp]-NH2; disulfide 2-7): the EC50 in data set [1] is 0.028 nM. In data set [2] (acetate buffer pH 4, 14 days), the “% degradation after 14 days at 40° C. pH4 acetate” value is given as 3.0%. Also, in data set [2] (phosphate buffer pH 6, 14 days), the “% degradation after 14 days at 40° C. pH6 phosphate” value is recorded as 5.1%. Besides, the “% degradation after 14 days at 40° C. pH7 phosphate” value in data set [2] (phosphate buffer pH 7, 14 days) is given as 12.7%. Moreover, in data set [3], the “Fibrillation (in buffer) pH4 acetate” value was “FD”, the “Fibrillation (in buffer) pH7 histidine” value is given as “FND” and the “Fibrillation (in buffer) pH7 phosphate” value is listed as “FND”. The EC50 in data set [4] was found to be 0.063 nM.

On to `CC[C@H](C)[C@@H](C(=O)N1CCC[C@H]1C(=O)N[C@@H](CO)C(=O)N[C@@H](CO)C(=O)N[C@H](C(=O)N[C@@H](CCC(=O)O)C(=O)N[C@H](C(=O)NCC(=O)N[C@@H](CO)C(=O)N[C@@H](CC(N)=O)C(=O)N[C@H](C(=O)N1C[C@H](O)C[C@H]1C(N)=O)[C@@H](C)O)C(C)C)[C@@H](C)O)N(C)C(=O)[C@H](C)NC(=O)CN(C)C(=O)[C@H](Cc1ccccc1)NC(=O)[C@H](CO)NC(=O)[C@H](CO)NC(=O)[C@H](CCCNC(=N)N)NC(=O)[C@H](CCC(N)=O)NC(=O)[C@H](CC(C)C)NC(=O)[C@H](Cc1ccccc1)NC(=O)[C@H](CCCC(=O)O)NC(=O)[C@H](C)NC(=O)[C@H](CC(C)C)NC(=O)[C@H](CCCNC(=N)N)NC(=O)[C@H](CCC(=O)O)NC(=O)[C@@H](NC(=O)[C@H](C)NC(=O)[C@@H]1CCCNC(=O)C[C@H](NC(=O)[C@H](CCCNC(=N)N)NC(=O)CC[C@H](NC(=O)CCCCCCCCCCCCCCCCCCC(=O)O)C(=O)O)C(=O)NCC(=O)N[C@@H]([C@@H](C)O)C(=O)N[C@@H](C)C(=O)N[C@@H]([C@@H](C)O)C(=O)N1)[C@@H](C)O` [Compound 21, [19CD]-isoGlu-RD()GTAT-Orn()-ATERLA-Aad-FLQRSSF-Gly(Me)-A-Ile(Me)-PSSTEVGSNT-Hyp-NH2] ({C20 diacid-γGlu}-RDGTAT[Orn]ATERLA[Aad]FLQRSSF[Sar]A[NMeI]PSSTEVGSNT[Hyp]-NH2; lactam 2-7), for which the EC50 in data set [1] came out at 0.01 nM. Further, the “% degradation after 72 h at 40° C. pH4 acetate” value in data set [2] (acetate buffer pH 4, 72 h) is reported as below 1%. Also, the “% degradation after 72 h at 40° C. pH6 phosphate” value in data set [2] (phosphate buffer pH 6, 72 h) was below 1%. The “% degradation after 72 h at 40° C. pH7 phosphate” value in data set [2] is listed as below 1%. For the same molecule, in data set [3], the “Fibrillation (in buffer) pH4 acetate” value is “FND”, the “Fibrillation (in buffer) pH7 histidine” value is recorded as “FND” and the “Fibrillation (in buffer) pH7 phosphate” value is listed as “FND”. For the same molecule, the concentration giving a half-maximal response (EC50) in data set [4] is 0.037 nM.

As for `CC[C@H](C)[C@@H](C(=O)N[C@@H](CC(C)C)C(=O)N[C@@H](CO)C(=O)N[C@@H](CO)C(=O)N[C@H](C(=O)N[C@@H](CCC(=O)O)C(=O)N[C@H](C(=O)NCC(=O)N[C@@H](CO)C(=O)N[C@@H](CC(N)=O)C(=O)N[C@H](C(=O)N1C[C@H](O)C[C@H]1C(N)=O)[C@@H](C)O)[C@@H](C)O)[C@@H](C)O)N(C)C(=O)[C@H](C)NC(=O)CN(C)C(=O)[C@H](Cc1ccccc1)NC(=O)[C@H](CO)NC(=O)[C@H](CO)NC(=O)[C@H](CCCNC(=N)N)NC(=O)[C@H](CCC(N)=O)NC(=O)[C@H](CC(C)C)NC(=O)[C@H](Cc1ccccc1)NC(=O)[C@H](CC(N)=O)NC(=O)[C@H](C)NC(=O)[C@H](CC(C)C)NC(=O)[C@H](CCCNC(=N)N)NC(=O)[C@H](CCC(N)=O)NC(=O)[C@@H](NC(=O)[C@H](C)NC(=O)[C@@H]1CCCCNC(=O)C[C@H](NC(=O)[C@H](CCCCN)NC(=O)CC[C@H](NC(=O)CCCCCCCCCCCCCCCCCCC(=O)O)C(=O)O)C(=O)NCC(=O)N[C@@H]([C@@H](C)O)C(=O)N[C@@H](C)C(=O)N[C@@H]([C@@H](C)O)C(=O)N1)[C@@H](C)O` [Compound 44, [19CD]-isoGlu-KD()GTATK()ATQRLANFLQRSSF-Gly(Me)-A-Ile(Me)-LSSTETGSNT-Hyp-NH2] ({C20 diacid-γGlu}-KDGTATKATQRLANFLQRSSF[Sar]A[NMeI]LSSTETGSNT[Hyp]-NH2; lactam 2-7), the EC50 in data set [1] is 0.009 nM. Besides, in data set [3], the “Fibrillation (in buffer) pH4 acetate” value was “FD”, the “Fibrillation (in buffer) pH7 histidine” value was “FND” and the “Fibrillation (in buffer) pH7 phosphate” value is “FND”. Also, the EC50 in data set [4] is 0.02 nM.
